Several values for one entry are separate records, joined by “and”; a condition that tells them apart may be missing. Equal values may be shown once. Toxic doses and inconclusive results are not listed. Residues, ends and D or L forms follow the SMILES beside them. *: point of attachment. Cbz = O=C(OCc1ccccc1)*; Bn = c1ccc(C*)cc1

The test relates to CD2F1 mice, L1210 leukemia ip, survival T/C. Briefly: NCI In Vivo Anticancer Drug Screen. Data for tumor model L1210 Leukemia (intraperitoneal) in CD2F1 (CDF1) mice. Particulars: higher = longer survival. The method in brief:
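In this screen, transplantable tumors were grown in mice given either the compound or its vehicle. Results were expressed as the treated measurement relative to the control measurement.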

[1] abbreviates: endpoint: mean survival time, dose: 100.0 mg/kg/injection, schedule: Q04DX003 (ip), vehicle: saline with Tween-80.
[2] abbreviates: endpoint: mean survival time, dose: 100.0 mg/kg/injection, schedule: Q01DX009 (ip), vehicle: saline.
Setting [3] is: endpoint: mean survival time, dose: 200.0 mg/kg/injection, schedule: Q01DX009 (ip), vehicle: saline.
Where [4] appears, read: endpoint: mean survival time, dose: 400.0 mg/kg/injection, schedule: Q01DX009 (ip), vehicle: saline.
[5] abbreviates: endpoint: mean survival time, dose: 25.0 mg/kg/injection, schedule: Q04DX002 (ip), vehicle: saline with Tween-80.
The mark [6] stands for this setting: endpoint: mean survival time, dose: 10.0 mg/kg/injection, schedule: Q01DX001 (ip), vehicle: saline.
[7] abbreviates: endpoint: mean survival time, dose: 20.0 mg/kg/injection, schedule: Q01DX001 (ip), vehicle: saline.
The mark [8] stands for this setting: endpoint: mean survival time, dose: 200.0 mg/kg/injection, schedule: Q04DX003 (ip), vehicle: saline with Tween-80.
Where [9] appears, read: endpoint: mean survival time, dose: 400.0 mg/kg/injection, schedule: Q04DX003 (ip), vehicle: saline with Tween-80.

On to `CCOC(C[Se][Se]CC(OCC)OCC)OCC`, for which the T/C (endpoint: mean survival time, dose: 3.13 mg/kg/injection, schedule: Q01DX009 (ip), vehicle: saline) was 100 % of control; the T/C (endpoint: mean survival time, dose: 6.25 mg/kg/injection, schedule: Q01DX009 (ip), vehicle: saline) was 108 % of control; the T/C (endpoint: mean survival time, dose: 6.25 mg/kg/injection, schedule: Q04DX003 (ip), vehicle: saline with Tween-80) was 95 % of control; the T/C (endpoint: mean survival time, dose: 12.5 mg/kg/injection, schedule: Q04DX003 (ip), vehicle: saline with Tween-80) was 102 % of control.

With `[Cl][Pt+2][Cl].[NH-]C1CCCC1[NH-]` (stereo not given), the T/C by setting is: (endpoint: median survival time, dose: 10.0 mg/kg/injection, schedule: Q04DX003 (ip), vehicle: Klucel (hydroxypropylcellulose) (HPC)) 166 % of control and 173 % of control; (endpoint: median survival time, dose: 20.0 mg/kg/injection, schedule: Q04DX003 (ip), vehicle: Klucel (hydroxypropylcellulose) (HPC)) 196 % of control and 333 % of control.

Turning to `COC(=O)c1ccc(OC)c2nc3c(C=O)c(OC)cc(OC)c3nc12`, the T/C (endpoint: mean survival time, dose: 5.3 mg/kg/injection, schedule: Q01DX009 (ip), vehicle: saline with Tween-80) was 94 % of control; the T/C (endpoint: mean survival time, dose: 8.0 mg/kg/injection, schedule: Q01DX009 (ip), vehicle: saline with Tween-80) was 92 % of control; the T/C (endpoint: mean survival time, dose: 12.0 mg/kg/injection, schedule: Q01DX009 (ip), vehicle: saline with Tween-80) is 94 % of control; the T/C (endpoint: mean survival time, dose: 18.0 mg/kg/injection, schedule: Q01DX009 (ip), vehicle: saline with Tween-80) is 97 % of control.

On to `CC(=N\N)/C(C)=N/N`, for which, under setting [1], the T/C was 105 % of control.

As to `Nc1nc2c(c(=O)[nH]1)N1C(=S)N(c3ccc(C(=O)NC(CCC(=O)O)C(=O)O)cc3)CC1CN2` (stereo not given), the T/C was 104 % of control (endpoint: mean survival time, dose: 100.0 mg/kg/injection, schedule: Q01DX001 (ip), vehicle: sodium bicarbonate); 98 % of control (endpoint: mean survival time, dose: 200.0 mg/kg/injection, schedule: Q01DX001 (ip), vehicle: sodium bicarbonate); 102 % of control (endpoint: mean survival time, dose: 400.0 mg/kg/injection, schedule: Q01DX001 (ip), vehicle: sodium bicarbonate).

Consider `Nc1nc[nH]c(=O)c1NC(=O)c1cccc([N+](=O)[O-])c1`, for which the T/C by setting is: (endpoint: mean survival time, dose: 50.0 mg/kg/injection, schedule: Q04DX003 (ip), vehicle: saline with Tween-80) 101 % of control and 111 % of control; (endpoint: mean survival time, dose: 100.0 mg/kg/injection, schedule: Q04DX002 (ip), vehicle: saline with Tween-80) 96 % of control and 109 % of control; (endpoint: mean survival time, dose: 200.0 mg/kg/injection, schedule: Q04DX002 (ip), vehicle: saline with Tween-80) 92 % of control and 104 % of control; (endpoint: mean survival time, dose: 400.0 mg/kg/injection, schedule: Q04DX002 (ip), vehicle: saline with Tween-80) 114 % of control and 96 % of control.

As for `CC1C(c2ccccc2)OP(=O)(N(CCCl)CCCl)N1C` (stereo not given), the T/C runs as follows: (endpoint: mean survival time, dose: 1.56 mg/kg/injection, schedule: Q01DX009 (ip), vehicle: other) 110 % of control; (endpoint: mean survival time, dose: 3.13 mg/kg/injection, schedule: Q01DX009 (ip), vehicle: other) 101 % of control; (endpoint: mean survival time, dose: 6.25 mg/kg/injection, schedule: Q01DX009 (ip), vehicle: other) 98 % of control; (endpoint: mean survival time, dose: 12.5 mg/kg/injection, schedule: Q01DX009 (ip), vehicle: other) 103 % of control and 95 % of control and 97 % of control; (endpoint: mean survival time, dose: 12.5 mg/kg/injection, schedule: Q01DX009 (ip), vehicle: water) 92 % of control; (endpoint: mean survival time, dose: 25.0 mg/kg/injection, schedule: Q01DX001 (ip), vehicle: other) 97 % of control and 100 % of control. The T/C was 104 % of control and 95 % of control (endpoint: mean survival time, dose: 25.0 mg/kg/injection, schedule: Q01DX009 (ip), vehicle: other); 86 % of control (endpoint: mean survival time, dose: 25.0 mg/kg/injection, schedule: Q01DX009 (ip), vehicle: water); 104 % of control [middle of 4 runs] (endpoint: mean survival time, dose: 31.3 mg/kg/injection, schedule: Q01DX001 (ip), vehicle: other); 102 % of control and 92 % of control (endpoint: mean survival time, dose: 50.0 mg/kg/injection, schedule: Q01DX001 (ip), vehicle: other); 95 % of control and 100 % of control (endpoint: mean survival time, dose: 50.0 mg/kg/injection, schedule: Q01DX009 (ip), vehicle: other); 100 % of control (endpoint: mean survival time, dose: 50.0 mg/kg/injection, schedule: Q01DX009 (ip), vehicle: water). The T/C is, setting by setting: (endpoint: mean survival time, dose: 62.5 mg/kg/injection, schedule: Q01DX001 (ip), vehicle: other) 104 % of control and 103 % of control and 101 % of control; (endpoint: mean survival time, dose: 100.0 mg/kg/injection, schedule: Q01DX001 (ip), vehicle: other) 103 % of control and 97 % of control; (endpoint: mean survival time, dose: 100.0 mg/kg/injection, schedule: Q01DX009 (ip), vehicle: other) 97 % of control and 100 % of control; (endpoint: mean survival time, dose: 100.0 mg/kg/injection, schedule: Q01DX009 (ip), vehicle: water) 88 % of control; (endpoint: mean survival time, dose: 125.0 mg/kg/injection, schedule: Q01DX001 (ip), vehicle: other) 95 % of control and 101 % of control and 104 % of control; (endpoint: mean survival time, dose: 200.0 mg/kg/injection, schedule: Q01DX001 (ip), vehicle: other) 103 % of control and 108 % of control. Moreover, the T/C runs as follows: (endpoint: mean survival time, dose: 200.0 mg/kg/injection, schedule: Q01DX009 (ip), vehicle: other) 95 % of control and 101 % of control; (endpoint: mean survival time, dose: 250.0 mg/kg/injection, schedule: Q01DX001 (ip), vehicle: other) 103 % of control and 98 % of control and 97 % of control; (endpoint: mean survival time, dose: 500.0 mg/kg/injection, schedule: Q01DX001 (ip), vehicle: other) 107 % of control and 103 % of control and 104 % of control.

Regarding `CC1=CC(=O)OC(C)(C)C1`, the T/C reads like this: under setting [2], 97 % of control; under setting [3], 96 % of control; under setting [4], 114 % of control.

`O=c1[nH]cc[nH]1`: the T/C (endpoint: mean survival time, dose: 267.0 mg/kg/injection, schedule: Q01DX009 (ip), vehicle: saline) was 111 % of control.

In the case of `COC(=O)C(Cc1ccccc1)NC(=O)C(CSCc1ccccc1)NC(=O)OCc1ccccc1` (stereo not given) (Cbz-Cys(Bn)-Phe-OMe; configuration not given here), the T/C (endpoint: mean survival time, dose: 100.0 mg/kg/injection, schedule: Q01DX001 (ip), vehicle: saline with Tween-80) was 93 % of control; the T/C (endpoint: mean survival time, dose: 100.0 mg/kg/injection, schedule: Q01DX009 (ip), vehicle: saline with Tween-80) was 91 % of control; the T/C (endpoint: mean survival time, dose: 200.0 mg/kg/injection, schedule: Q01DX001 (ip), vehicle: saline with Tween-80) was 95 % of control; the T/C (endpoint: mean survival time, dose: 400.0 mg/kg/injection, schedule: Q01DX001 (ip), vehicle: saline with Tween-80) is 89 % of control.

On to `C=C(C)C1CCC2(COS(=O)(=O)c3ccc(C)cc3)CCC3(C)C(CCC4C5(C)CCC(OC6CCCCO6)C(C)(C)C5CCC43C)C12` (stereo not given), for which the T/C reads like this: under setting [5], 103 % of control; (endpoint: mean survival time, dose: 50.0 mg/kg/injection, schedule: Q04DX002 (ip), vehicle: saline with Tween-80) 92 % of control.

With `CC(=O)O.[Ag]`, the T/C was 93 % of control (endpoint: mean survival time, dose: 5.0 mg/kg/injection, schedule: Q01DX001 (ip), vehicle: saline); 96 % of control under setting [6]; 97 % of control under setting [7]; 100 % of control (endpoint: mean survival time, dose: 40.0 mg/kg/injection, schedule: Q01DX001 (ip), vehicle: saline); 100 % of control (endpoint: mean survival time, dose: 80.0 mg/kg/injection, schedule: Q01DX001 (ip), vehicle: saline); 91 % of control (endpoint: mean survival time, dose: 100.0 mg/kg/injection, schedule: Q01DX001 (ip), vehicle: saline).

Turning to `CC(=O)Nc1nc(C)c(CC/C=C/c2ccc([N+](=O)[O-])cc2)c(=O)[nH]1`, the T/C under setting [1] was 94 % of control, the T/C under setting [8] is 97 % of control and the T/C under setting [9] is 90 % of control.

Regarding `CC1CN=C(c2ccc(Br)cc2)O1` (stereo not given), the T/C (endpoint: mean survival time, dose: 100.0 mg/kg/injection, schedule: Q04DX003 (ip), vehicle: saline) is 103 % of control; the T/C (endpoint: mean survival time, dose: 200.0 mg/kg/injection, schedule: Q04DX003 (ip), vehicle: saline) is 96 % of control; the T/C (endpoint: mean survival time, dose: 400.0 mg/kg/injection, schedule: Q04DX003 (ip), vehicle: saline) was 103 % of control.

In the case of `N#CCc1ccccc1`, the T/C reads like this: under setting [6], 105 % of control; under setting [7], 105 % of control.

Consider `O=C(C1CO1)C(Cl)(Cl)Cl` (stereo not given), for which the T/C was 111 % of control (endpoint: median survival time, dose: 12.0 mg/kg/injection, schedule: Q01DX009 (ip), vehicle: saline); 108 % of control (endpoint: median survival time, dose: 25.0 mg/kg/injection, schedule: Q01DX009 (ip), vehicle: saline); 117 % of control (endpoint: median survival time, dose: 50.0 mg/kg/injection, schedule: Q01DX009 (ip), vehicle: saline).

`COc1nn(O)cc(C)c1=N`: the T/C (endpoint: mean survival time, dose: 6.25 mg/kg/injection, schedule: Q04DX002 (ip), vehicle: saline with Tween-80) is 93 % of control; the T/C (endpoint: mean survival time, dose: 12.5 mg/kg/injection, schedule: Q04DX002 (ip), vehicle: saline with Tween-80) is 101 % of control; the T/C under setting [5] was 101 % of control.

For the compound `COC(=O)CC(C)Cc1ccc(OC)c(OC)c1` (stereo not given), the T/C by setting is: under setting [2], 97 % of control; under setting [1], 97 % of control; under setting [3], 95 % of control; under setting [8], 100 % of control; under setting [4], 86 % of control; under setting [9], 96 % of control.

These data come from PubChem BioAssay AID256 (DTP/NCI, 2004).
